Source: patent publication US8853227B2, “Methotrexate adjuvants to reduce toxicity and methods for using the same” (Tosk, Incorporated, priority 2008, dated 2014)
Entries after “also recorded” stand apart in the source; their conditions may differ.

Assays:
[1] = Mouse Study II (protection from loss of mucosal permeability, oral iodixanol in plasma); format: in vivo, C57BI/6 female mice; details: day 7
Method: C57BI/6 female mice (n=7) were treated intraperitoneal (ip) with 100 mg/kg MTX on days 2, 3 and 4 with and without 60 mg/kg TK-112690 (ip) three hours before, and after, MTX injections. On day 7, mucosal barrier injury was estimated by measuring plasma concentrations of orally administered iodixanol determined by HPLC using UV detection (Boxplots with minimum and maximum values (black lines). Orally administered iodixanol is not absorbed absent an increase in mucosal permeability. Group 1=saline control, Group 2=MTX and Group 3=MTX+TK-112690.
The aim of this study was to evaluate the ability of a representative a 2,2′-anhydropyrimidine test article to mitigate MTX-induced loss of mucosal permeability. C57BI/6 female mice (n=7) were treated (ip) with 100 mg/kg MTX on days 2, 3 and 4 with and without 60 mg/kg TK-112690 (ip) three hours before, and after, MTX injections. On day 7, mucosal barrier injury was estimated by measuring plasma concentrations of orally administered iodixanol determined by HPLC using UV detection. Orally administered iodixanol is not absorbed absent an increase in mucosal permeability.

Drosophila melanogaster = assay: Fly Study I (protection from MTX-induced lethality); format: in vivo; details: for Flies Alive (Number): Fly Study I method, test compound + MTX (MTX Alone: no adjuvant), Table 3
Method: In this study, Drosophila melanogaster eggs (50 eggs per vial) were treated with either 0.005 mg TK-112690+0.4 mg MTX (Group 1), 0.01 mg TK-112690+0.4 mg MTX (Group 2), 0.04 mg TK-112690+0.4 mg MTX (Group 3), 0.1 mg TK-112690+0.4 mg MTX (Group 4), 0.4 mg MTX alone (Group 5) or saline blank (Group 6). Two vials of eggs for each dose group were evaluated for viability (viable flies plus pupae).
The efficacy of cancer chemotherapy can be improved if agents are available to reduce the adverse events associated with treatment with cytotoxic agents. To this end, Drosophila melanogaster (commonly know as the fruit fly) is an ideal organism to screen chemical compounds for such side-effect-reducing agents. This study is aimed at finding a dose of a 2,2′-anhydropyrimidine test article that protects against MTX-induced lethality in insects.
Increasing amounts of a 2,2′-anhydropyrimidine test article (typically 0.03 to 0.1 mg) are mixed in an aqueous solution with 0.3 (or 0.4) mg MTX. Four milliliters (mL) of a 2,2′-anhydropyrimidine test article+MTX solutions are added to an appropriate amount of instant fly medium. Fruit fly eggs are added to a 2,2′-anhydropyrimidine test article+MTX treated medium and incubated for up to 31 days. After the 31 day incubation, each assay is scored by the number of mature fly and pupae per vial.
The assays are set up in clear sterile polystyrene narrow diameter vials from Applied Scientific (Hampton, N.H.). Vials are stored in trays and incubated in a darkened 25° C. incubator.
Reagents and materials used are: 50 mg/mL MTX in H2O (pH 8), 20 mg/mL of the 2,2′-anhydropyrimidine test article in H2O, water, sterile polystyrene narrow diameter vials from Applied Scientific, Instant Drosophila Food Medium, Oregon-R Drosophila melanogaster, 25° C. incubator, and 15 mL polystyrene conical tubes
Each assay is performed in a separate fly vial. Increasing amounts of a 2,2′-anhydropyrimidine (0.005 to 1.0 mg) are tested for MTX side-effect-reduction on fly eggs. Amounts of the 2,2′-anhydropyrimidine test article are drawn from a 20 mg/mL stock solution dissolved in water. Nine mL of the 2,2′-anhydropyrimidine+0.3 (or 0.4) mg MTX solutions are pre-mixed with water in a 15 mL conical tube. Duplicate assays receive 4 mL of the 2,2′-anhydropyrimidine test article+0.3 (or 0.4) mg MTX solutions. Pre-measured amounts of instant drosophila medium are added to each assay to achieve optimal hydration level. Controls are (1) 4 mL water alone and (2) 0.3 (or 0.4) mg MTX alone. Precisely 50 fly eggs aged for ˜18 hours are added to each assay. Assays are capped with a fitted plug and incubated for 30 days in a darkened 25° C. incubator. Assays are scored by the number of dead pupae or adult flies per vial.

AS283 cells = assay: Cell Culture Study II (MTX cytotoxicity, CellTiter-Glo); format: cell-based, human; details: 72 hours
Method: In this study, AS283 cells were grown in RPMI-1640 supplemented with L-glutamine dipeptide, sodium pyruvate, HEPES, and 10% FBS. AS283 cells were used to seed three 96-well plates with 10,000 cells/well in a total volume of 50 μL. Medium alone wells were seeded 100 μL medium. Plates were incubated overnight. The following day, 25 μL of the TK-112690 and MTX stock solutions were added to the appropriate wells. TK-112690 was added first, followed by MTX in all wells. 25 μL of vehicle was added to TK-112690 alone wells. 25 μL of vehicle and 25 μL medium were added to vehicle control wells, and 50 μL medium was added to cell control wells. Cell viability was measured using CellTiter-Glo and DOX (10 μM) was used as a reference standard. The plates were incubated at 37° C., 5% CO2 for 72 hours then removed from the incubator and placed on the bench at room temperature for 30 min. The plates were not stacked or shaken. […] Luminescence was recorded on TriLux. […]
AS283 cells were grown in RPMI-1640 supplemented with L-glutamine dipeptide, sodium pyruvate, HEPES, and 10% FBS. […] Cell viability was measured using CellTiter-Glo and DOX (10 μM) was used as a reference standard.
The plates were incubated at 37° C., 5% CO2 for 72 hours then removed from the incubator and placed on the bench at room temperature for 30 min. […] Luminescence was recorded on TriLux.

Row | SMILES | mucosal barrier injury (increased plasma iodixanol) ([1]; 100 mg/kg MTX ip on Days 2, 3 and 4) | effect of MTX on lethality in the flies (Drosophila melanogaster; 0.4 mg MTX alone vs saline, p<0.01) | Flies Alive (Number) (Drosophila melanogaster) | cytotoxicity to AS283 cancer cells (AS283 cells; MTX 0.01-100 μM) | protection from MTX-induced mucosal barrier injury (plasma concentration of orally administered iodixanol) ([1]; 60 mg/kg ip 3 h before and after 100 mg/kg MTX, days 2, 3, 4, p<0.05) | protection from MTX lethality in flies (viable flies plus pupae) (Drosophila melanogaster; 0.005 to 0.1 mg TK-112690 + 0.4 mg MTX, p<0.01 vs MTX alone or saline) | effect of TK-112690 on MTX cytotoxicity (cell viability) (AS283 cells; TK-112690 1, 10, 100 μM + MTX 0.01-100 μM)
1 | CN(Cc1cnc2nc(N)nc(N)c2n1)c1ccc(C(=O)N[C@@H](CCC(=O)O)C(=O)O)cc1 [MTX, N-[4-[[(2,4-diamino-6-pteridinyl)methyl]methylamino]benzoyl]-L-glutamic acid, reference compound] | experienced mucosal barrier injury | highly significant | 0 | cytotoxic | – | – | –
2 | Cc1cn2c(nc1=O)O[C@H]1[C@H](O)[C@@H](CO)O[C@H]12 [TK-112690, 2,2′-anhydro-5-methyluridine] | – | – | 8 | – | protected mice from MTX-induced mucosal barrier injury | highly significant | did not diminish the cytotoxicity of MTX; also recorded: no statistical difference
